In ChEMBL document CHEMBL1201862, “PubChem BioAssay data set” (2004):
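96-well plates; 48 h exposure; 5 concentrations. Endpoints by linear interpolation between flanking doses. Not reached: highest tested concentration assigned. Abbreviation: GI50, concentration required for 50% inhibition of growth.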 The source made the active and inactive calls. Rule as the data show it: active = GI50 up to about 1.1 µM and inactive = higher.

Legend:
Experiment in all cases: NCI anticancer screen, dose series, 48 h
786-0 = tested on: 786-0
A498 = tested on: A498
A549 = tested on: A549
ACHN = tested on: ACHN
CAKI-1 = tested on: CAKI-1
COLO 205 = tested on: COLO 205
DLD-1 = tested on: DLD-1
DMS-114 = tested on: DMS-114
DMS-273 = tested on: DMS-273
EKVX = tested on: EKVX
HCC 2998 = tested on: HCC 2998
HCT-116 = tested on: HCT-116
HCT-15 = tested on: HCT-15
HL-60 = tested on: HL-60
HT-29 = tested on: HT-29
IGROV-1 = tested on: IGROV-1
K562 = tested on: K562
KM-20L2 = tested on: KM-20L2
KM12 = tested on: KM12
LOX IMVI = tested on: LOX IMVI
LXFL 529 = tested on: LXFL 529
M14 = tested on: M14
M19-MEL = tested on: M19-MEL
MOLT-4 = tested on: MOLT-4
NCI-H226 = tested on: NCI-H226
NCI-H23 = tested on: NCI-H23
NCI-H460 = tested on: NCI-H460
NCI-H522 = tested on: NCI-H522
OVCAR-3 = tested on: OVCAR-3
OVCAR-4 = tested on: OVCAR-4
OVCAR-5 = tested on: OVCAR-5
OVCAR-8 = tested on: OVCAR-8
RPMI-8226 = tested on: RPMI-8226
SF-268 = tested on: SF-268
SF-295 = tested on: SF-295
SF-539 = tested on: SF-539
SK-MEL-28 = tested on: SK-MEL-28
SK-MEL-2 = tested on: SK-MEL-2
SK-MEL-5 = tested on: SK-MEL-5
SK-OV-3 = tested on: SK-OV-3
SN12C = tested on: SN12C
SNB-19 = tested on: SNB-19
SNB-75 = tested on: SNB-75
SNB-78 = tested on: SNB-78
SR = tested on: SR
SW-620 = tested on: SW-620
TK-10 = tested on: TK-10
U-251 = tested on: U-251
UACC-257 = tested on: UACC-257
UACC-62 = tested on: UACC-62
UO-31 = tested on: UO-31

Measured: GI50

CCCCCCCCCCCCCCCCNCCCN(C)CCCN
inactive: 786-0 15.2 µM | A498 18.2 µM | A549 16.7 µM | ACHN 19.4 µM | CAKI-1 18.1 µM | COLO 205 22.1 µM | DLD-1 16.8 µM | DMS-114 16.6 µM | DMS-273 17.8 µM | EKVX 20.5 µM | HCC 2998 18.3 µM | HCT-116 18.7 µM | HL-60 18.6 µM | HT-29 19.3 µM | IGROV-1 20.3 µM | K562 20 µM | KM-20L2 18.2 µM | KM12 18.4 µM | LOX IMVI 19.9 µM | LXFL 529 18.6 µM | M14 17.1 µM | M19-MEL 19.9 µM | MOLT-4 28.8 µM | NCI-H226 19.8 µM | NCI-H23 18.9 µM | NCI-H460 17.7 µM | NCI-H522 17.3 µM | OVCAR-3 19.5 µM | OVCAR-4 18.8 µM | OVCAR-5 16.4 µM | OVCAR-8 20.7 µM | RPMI-8226 20.2 µM | SF-268 18.7 µM | SF-295 17.9 µM | SF-539 17.8 µM | SK-MEL-28 13.4 µM | SK-MEL-2 20.8 µM | SK-MEL-5 16 µM | SK-OV-3 17.3 µM | SN12C 20 µM | SNB-19 17.1 µM | SNB-75 18.2 µM | SNB-78 16.9 µM | SR 21 µM | SW-620 18.5 µM | TK-10 15 µM | U-251 17.3 µM | UACC-257 22 µM | UACC-62 17.3 µM | UO-31 17.3 µM
17.2 µM: HCT-15
